In ChEMBL document CHEMBL4321839, “Structure-activity relationships (SAR) of triazine derivatives: Promising antimicrobial agents” (Eur J Med Chem, 2020):
Values after ≈ are worked out from the molar mass of the structure shown.

Experiments:
Bacillus subtilis [1] = assay: Antimicrobial activity against Bacillus subtilis NCIM-2063 assessed as reduction in microbial growth after 24 hrs by CLSI based broth dilution method; format: functional; conditions: NCIM-2063, 24 h
Escherichia coli [2] = assay: Antimicrobial activity against Escherichia coli NCIM-2065 assessed as reduction in microbial growth after 24 hrs by CLSI based broth dilution method; format: functional; conditions: NCIM-2065, 24 h
Lacticaseibacillus casei = assay: Antibacterial activity against Lactobacillus casei NCIM-2651 assessed as reduction in microbial growth incubated for 24 hrs by broth dilution method; format: functional; conditions: NCIM-2651, 24 h
Escherichia coli [3] = assay: Antimicrobial activity against Escherichia coli ATCC 25922 assessed as reduction in microbial growth after 24 to 48 hrs by microdilution susceptibility test; format: functional
Staphylococcus aureus [4] = assay: Antimicrobial activity against Staphylococcus aureus […] assessed as reduction in microbial growth after 24 to 48 hrs by microdilution susceptibility test; format: functional
Bacillus subtilis [5] = assay: Antimicrobial activity against Bacillus subtilis NCIM-2063 assessed as zone of inhibition at 5 ug after 24 hrs by disk diffusion method; format: functional; conditions: NCIM-2063, 24 h, read-out: IZ
Staphylococcus aureus [6] = assay: Antimicrobial activity against Staphylococcus aureus NCIM-2079 assessed as zone of inhibition at 5 ug after 24 hrs by disk diffusion method; format: functional; conditions: NCIM-2079, 24 h, read-out: IZ
Bacillus cereus = assay: Antimicrobial activity against Bacillus cereus NCIM-2156 assessed as zone of inhibition at 5 ug after 24 hrs by disk diffusion method; format: functional; conditions: NCIM-2156, 24 h, read-out: IZ
Pseudomonas aeruginosa [7] = assay: Antimicrobial activity against Pseudomonas aeruginosa NCIM-2036 assessed as zone of inhibition at 5 ug after 24 hrs by disk diffusion method; format: functional; conditions: NCIM-2036, 24 h, read-out: IZ
Escherichia coli [8] = assay: Antimicrobial activity multi drug-resistant against Escherichia coli; format: functional
Staphylococcus aureus [9] = assay: Antimicrobial activity methicillin-resistant against Staphylococcus aureus; format: functional
Escherichia coli [10] = assay: Antimicrobial activity against multi drug-resistant Escherichia coli assessed as reduction in microbial growth after 24 to 48 hrs by microdilution susceptibility test; format: functional
[11] = Cytotoxicity against African green monkey Vero cells incubated for 72 hrs by MTT assay; format: cell-based; conditions: chlorocebus sabaeus
Staphylococcus aureus [12] = assay: Antimicrobial activity against methicillin-resistant Staphylococcus aureus assessed as reduction in microbial growth after 24 to 48 hrs by microdilution susceptibility test; format: functional
Candida albicans = assay: Antifungal activity against Candida albicans NCIM-3102 at 18 to 24 hrs by CLSI based alamar blue assay; format: functional
Proteus vulgaris = assay: Antimicrobial activity against Proteus vulgaris NCIM-2027 assessed as reduction in microbial growth after 24 hrs by CLSI based broth dilution method; format: functional; conditions: NCIM-2027, 24 h
Pseudomonas aeruginosa [13] = assay: Antimicrobial activity against Pseudomonas aeruginosa MTCC 1688 assessed as reduction in microbial growth after 24 to 48 hrs by broth dilution method; format: functional
Escherichia coli [14] = assay: Antimicrobial activity against Escherichia coli MTCC 443 assessed as reduction in microbial growth after 24 to 48 hrs by broth dilution method; format: functional
Staphylococcus aureus [15] = assay: Antimicrobial activity against methicillin-resistant Staphylococcus aureus clinical isolate MRSA1 assessed as reduction in microbial growth by two-fold serial dilution method; format: functional
Klebsiella pneumoniae = assay: Antimicrobial activity against multi drug-resistant Klebsiella pneumoniae assessed as reduction in microbial growth by two-fold serial dilution method; format: functional
Pseudomonas aeruginosa [16] = assay: Antimicrobial activity against Pseudomonas aeruginosa NCIM-2036 after 24 hrs by CLSI based broth dilution method; format: functional; conditions: NCIM-2036, 24 h
Proteus mirabilis = assay: Antimicrobial activity against Proteus mirabilis assessed as zone of inhibition after 18 hrs by disk diffusion method; format: functional
Nakaseomyces glabratus = assay: Antifungal activity against Candida glabrata NCIM-3266 at 18 to 24 hrs by CLSI based alamar blue assay; format: functional
Enterococcus faecium = assay: Antimicrobial activity against vancomycin-resistant Enterococcus faecium ATCC 51559 assessed as reduction in microbial growth incubated for 18 to 24 hrs by two-fold serial dilution method; format: functional

O=[N+]([O-])c1cccc(Nc2nc(NC3=NC(c4ccccc4O)=CC(c4ccccc4[N+](=O)[O-])S3)nc(Nc3cccc([N+](=O)[O-])c3)n2)c1 (configuration not stated)
MIC (Bacillus subtilis [1]): 6.25 µg/mL
MIC (Escherichia coli [2]): 12.5 µg/mL

Nc1nc(Nc2nc(-c3ccc(Cl)cc3)cs2)nc(Sc2ccccc2)n1
MIC (Lacticaseibacillus casei): 3.12 µg/mL

O=C(CNc1nc(NCC(=O)N/N=C/c2ccc(Cl)cc2)nc(Nc2ccc(-c3ccc(Nc4nc(NCC(=O)N/N=C/c5ccc(Cl)cc5)nc(NCC(=O)N/N=C/c5ccc(Cl)cc5)n4)cc3)cc2)n1)N/N=C/c1ccc(Cl)cc1
MIC (Escherichia coli [3]): 12.5 to 25 µg/mL
MIC (Staphylococcus aureus [4]): 12.5 to 25 µg/mL

Nc1nc(Nc2ccccc2)nc(Nc2nc(-c3ccc(Cl)cc3)cs2)n1
MIC (Lacticaseibacillus casei): 3.12 µg/mL

Cc1ccc(Nc2nc(Nc3ccc(C)cc3)nc(N3CCN(C(=S)Nc4ccnc5cc(Cl)ccc45)CC3)n2)cc1
zone of inhibition at 5 µg/disc (Bacillus subtilis [5]): 16 to 17 mm
zone of inhibition at 5 µg/disc (Staphylococcus aureus [6]): 16 to 17 mm
zone of inhibition at 5 µg/disc (Bacillus cereus): 9 to 17 mm
zone of inhibition at 5 µg/disc (Pseudomonas aeruginosa [7]): 9 to 17 mm

O=C(O)C1=CC(C2CC2)C2=C(CC(F)C3=NN=C(c4ccc([N+](=O)[O-])cc4)CN32)C1=O (configuration not stated)
MIC (Escherichia coli [8]): 0.25 µg/mL (≈ 0.589 µM)
MIC (Staphylococcus aureus [9]): 0.25 to 8 µg/mL (≈ 0.589 to 18.9 µM)

O=C(O)C1=CC(C2CC2)C2=C(CC(F)C3=NN=C(c4ccccc4F)CN32)C1=O (configuration not stated)
MIC (Escherichia coli [8]): 0.25 µg/mL (≈ 0.629 µM)
MIC (Staphylococcus aureus [9]): 0.25 to 8 µg/mL (≈ 0.629 to 20.1 µM)

O=C(O)c1ccc(Nc2nc(Cl)nc(NCc3ccccc3)n2)cc1
MIC (Escherichia coli [3]): 50 µg/mL
MIC (Staphylococcus aureus [4]): 12.5 µg/mL
MIC (Escherichia coli [10]): 100 µg/mL
CC50 at 72 h [11]: 225 µg/mL (≈ 632 µM)
MIC (Staphylococcus aureus [12]): 25 µg/mL

Clc1ccc(-c2csc(Nc3nc(N(c4ccccc4)c4ccccc4)nc(N(c4ccccc4)c4ccccc4)n3)n2)cc1
MIC (Candida albicans): 0.63 µg/mL (≈ 1.01 µM)

O=C1CSC(=O)N1c1nc(Nc2cccc(Cl)c2)nc(Nc2cccc(Cl)c2)n1
MIC (Proteus vulgaris): 3.91 µg/mL

O=[N+]([O-])c1ccc(Nc2nc(Nc3ccc([N+](=O)[O-])cc3)nc(N3CCN(C(=S)Nc4ccnc5cc(Cl)ccc45)CC3)n2)cc1
zone of inhibition at 5 µg/disc (Bacillus subtilis [5]): 16 to 17 mm
zone of inhibition at 5 µg/disc (Staphylococcus aureus [6]): 16 to 17 mm
zone of inhibition at 5 µg/disc (Bacillus cereus): 9 to 17 mm
zone of inhibition at 5 µg/disc (Pseudomonas aeruginosa [7]): 9 to 17 mm

O=C(O)C1=CC(C2CC2)C2=C(CC(F)C3=NN=C(c4cccc(Cl)c4)CN32)C1=O (configuration not stated)
MIC (Escherichia coli [8]): 8 µg/mL (≈ 19.3 µM)
MIC (Staphylococcus aureus [9]): 8 µg/mL (≈ 19.3 µM)

O=C(CNc1nc(NCC(=O)N/N=C/c2ccc(Cl)cc2)nc(Nc2ccc(Nc3nc(NCC(=O)N/N=C/c4ccc(Cl)cc4)nc(NCC(=O)N/N=C/c4ccc(Cl)cc4)n3)cc2)n1)N/N=C/c1ccc(Cl)cc1
MIC (Escherichia coli [3]): 12.5 to 25 µg/mL
MIC (Staphylococcus aureus [4]): 12.5 to 25 µg/mL

CC1(C)S[C@@H]2[C@H](NC(=O)[C@H](N)c3ccccc3)C(=O)N2[C@H]1C(=O)O.O.O.O [AMPICILLIN TRIHYDRATE]
MIC (Escherichia coli [3]): 25 µg/mL
MIC (Staphylococcus aureus [4]): 12.5 µg/mL

CC1(C)S[C@@H]2[C@H](NC(=O)[C@H](N)c3ccccc3)C(=O)N2[C@H]1C(=O)O [AMPICILLIN]
MIC (Pseudomonas aeruginosa [13]): 100 µg/mL
MIC (Escherichia coli [14]): 100 µg/mL
MIC (Staphylococcus aureus [15]): 6.25 µg/mL
MIC (Escherichia coli [3]): 25 µg/mL
MIC (Staphylococcus aureus [4]): 12.5 µg/mL
MIC (Escherichia coli [10]): > 250 µg/mL
MIC (Klebsiella pneumoniae): 12.5 µg/mL
MIC (Staphylococcus aureus [12]): > 250 µg/mL

C=CC1=C(C(=O)O)N2C(=O)[C@@H](NC(=O)/C(=N\OCC(=O)O)c3csc(N)n3)[C@H]2SC1 [CEFIXIME]
MIC (Pseudomonas aeruginosa [16]): 3.12 to 6.25 µg/mL (≈ 6.89 to 13.8 µM)
MIC (Proteus vulgaris): 3.91 to 7.81 µg/mL
MIC (Escherichia coli [2]): 3.91 to 7.81 µg/mL

O=C(O)c1cn(C2CC2)c2cc(N3CCNCC3)c(F)cc2c1=O [CIPROFLOXACIN]
MIC (Staphylococcus aureus [9]): 4 µg/mL (≈ 12.1 µM)
inhibition zone (IZ) (Proteus mirabilis): 22 mm

OC(Cn1cncn1)(Cn1cncn1)c1ccc(F)cc1F [FLUCONAZOLE]
MIC (Nakaseomyces glabratus): 0.63 µg/mL (≈ 2.06 µM)
MIC (Candida albicans): 0.63 µg/mL (≈ 2.06 µM)

C[C@H]1COc2c(N3CCN(C)CC3)c(F)cc3c(=O)c(C(=O)O)cn1c23.C[C@H]1COc2c(N3CCN(C)CC3)c(F)cc3c(=O)c(C(=O)O)cn1c23.O [LEVOFLOXACIN]
zone of inhibition at 5 µg/disc (Bacillus subtilis [5]): 14 to 15 mm
MIC (Bacillus subtilis [1]): 3.12 µg/mL
zone of inhibition at 5 µg/disc (Staphylococcus aureus [6]): 14 to 15 mm
MIC (Escherichia coli [2]): 3.12 µg/mL

CC[C@H](C)[C@H](NC(=O)CN)C(=O)NCC(=O)N[C@@H](C)C(=O)N[C@H](C(=O)N[C@@H](CC(C)C)C(=O)N[C@@H](CCCCN)C(=O)N[C@H](C(=O)N[C@@H](CC(C)C)C(=O)N[C@H](C(=O)N[C@H](C(=O)NCC(=O)N[C@@H](CC(C)C)C(=O)N1CCC[C@H]1C(=O)N[C@@H](C)C(=O)N[C@@H](CC(C)C)C(=O)N[C@H](C(=O)N[C@@H](CO)C(=O)N[C@@H](Cc1c[nH]c2ccccc12)C(=O)N[C@H](C(=O)N[C@@H](CCCCN)C(=O)N[C@@H](CCCNC(=N)N)C(=O)N[C@@H](CCCCN)C(=O)N[C@@H](CCCNC(=N)N)C(=O)N[C@@H](CCC(N)=O)C(=O)N[C@@H](CCC(N)=O)C(N)=O)[C@@H](C)CC)[C@@H](C)CC)[C@@H](C)O)[C@@H](C)O)C(C)C)C(C)C [MELITTIN]
MIC (Enterococcus faecium): 2 µM

CN[C@@H]1[C@H](O[C@H]2[C@H](O[C@H]3[C@H](O)[C@@H](O)[C@H](N=C(N)N)[C@@H](O)[C@@H]3N=C(N)N)O[C@@H](C)[C@]2(O)C=O)O[C@@H](CO)[C@H](O)[C@H]1O [STREPTOMYCIN]
MIC (Lacticaseibacillus casei): 12.5 µg/mL
